Read-outs that look alike come from different tables or passages of the source. One block for each compound: values may come before it. *1 amine or outer side, *2 acyl side, *3 side chain or, on linkers, in order; H or OH if unused. Where a SMILES comes first, the peptide text is derived from it. Bridges are numbered along the chain shown (N, C = ends). [ ]: non-standard residue; d: D form. βAsp = O=C(O)[C@H](CC(=O)[*:2])N[*:1]
Columns and labels:
[1] = stability / deamidation kinetics of peptides by RP-HPLC; format: physicochemical; details: for stability under integrin binding assay conditions: assay conditions of competitive binding
Method: RP-HPLC analysis of NGR-pep and its synthetic deamidation products (DGR-pep and isoDGR-pep) before and after incubation for 4 h at 37° C. in 0.1 M ammonium bicarbonate buffer, pH 8.5 (A and B) and in DMEM, pH 7.3 (A, inset). RP-HPLC was performed on a C-18 column (PepMap C18, PerSeptive Biosystem) as follows: buffer A, 0.1% trifluoroacetic acid (TFA) in water; buffer B, 95% acetonitrile, 0.1% TFA; 0% B for 10 min, linear gradient 20-40% B in 30 min, 100% B for 10 min; 0% B for 15 min (flow rate, 0.5 ml/min). Peak 1, 2 and 3 were identified by spiking the NGR-pep, after 2 h of incubation, with equal amount of the indicated peptide (C). NGR-pep (peak 1) rapidly converts to compounds corresponding to DGR-pep (peak 2) and isoDGR-pep (peak 3) (half-life, 2-4 h).
The stability of NGR and the kinetics of LisoDGR or DDGR formation at pH 7.3 (DMEM) and pH 8.5 (ammonium bicarbonate), were then investigated. To this aim the CNGRCGVRY (SEQ ID NO: 42) peptide (called NGR-pep) was synthesized and analyzed by reverse-phase HPLC, before and after incubation at 37° C. Residues GVRY (SEQ ID NO: 72) were added to the C-terminus of CNGRC (SEQ ID NO: 6) to enable column adsorption. In addition five peptides called, DGR-pep, D-DGR-pep, isoDGR-pep, D-isoDGR and SGR-pep, corresponding to the same sequence of NGR-pep except for the presence of D, D-D, L-isoD, D-isoD and S, respectively in place of N were prepared. The half-life of NGR-pep at pH 7.3 and 8.5, estimated from the height of the main chromatographic peak (peak 1), was about 4 and 2 h, respectively (FIG. 5A, inset). Peptides corresponding to deamidation products were stable under these conditions (FIG. 5B).
To identify peaks and to verify that the measured half-life correspond to Asn deamidation, and not to other structural changes, we analyzed heat-treated NGR-pep peptide spiked with fresh NGR-pep, or DGR-pep or isoDGR-pep peptides.

αvβ3 = biological target: T1, αvβ3 (Homo sapiens, UniProt P05106+P06756); assay: IC50 (μM)
T1 construct: purchased Immunological Sciences
From the text: Table printed on a drawing sheet, Figure 7
Head of the field: IC50 (μM)
The patent's description of the figure: FIG. 7 Competitive binding of NGR-TNF to αvβ3 with NGR-pep and its deamidated products to αvβ3.
First copying reader's note: Legend table of panel A (inhibition of bio-NGR-TNF binding to αvβ3): the first three body rows belong to the upper plot and the last five to the lower plot, which prints no head of its own; the plot marker symbols are left out.
Where the first naming reader finds the target: description_of_the_figure: FIG. 7 Competitive binding of NGR-TNF to αvβ3 with NGR-pep and its deamidated products to αvβ3.

αvβ3 integrin = biological target: T2, αvβ3 integrin (Homo sapiens, UniProt P05106+P06756); assay: competitive binding of biotinylated FN-I5/streptavidin-peroxidase complexes to αvβ3-coated plates; details: in words, FIG. 6C
T2 construct: purchased Immunological Sciences
Method: (C) Competitive binding of biotinylated FN-I5/streptavidin-peroxidase complexes to αvβ3-coated plates with various amounts of FN-I4-5 or FN-I4-5SGS (upper panel or peptides corresponding to the NGR loop (residues 258-271) of FN-I5 before and after heat treatment (lower panel).
Binding of biotinylated peptides (CNGRC (SEQ ID NO: 6)-TNF1-11, CARAC (SEQ ID NO: 36)-TNF1-11 and FN-I5) to purified integrins was studied using streptavidin-peroxidase conjugate complexes. Complexes were prepared by mixing various quantities (0.5-1 μg) of heat-treated biotinylated peptides in DPBS containing 3% BSA with 0.03 units of streptavidinperoxidase (binding capacity: 1 μg of biotin/unit of streptavidin-peroxidase) (final volume 15 μl). Complexes were diluted in 3% BSA-DPBS (1:500), added to microtiterplates coated with integrins as described above, and incubated for 2 h at room temperature. After washing with DPBS, bound peroxidase was detected by chromogenic reaction as described above. Each assay was carried out in triplicate.
The binding of heat-treated FN-I5, CNGRC (SEQ ID NO: 6)-TNF and short peptides to purified αvβ3, αvβ5, α5β1 and α1β1 integrins was then investigated by direct and competitive ELISA with integrins adsorbed on microtiterplates.

EA.hy926 cells = assay: EA.hy926 cell adhesion assay on coated microtiter plates; format: cell-based, human; details: for EA.hy926 cell adhesion to coated product after heat-treatment: 0.1 M ammonium bicarbonate buffer, pH 8.5, 16 h at 37° C.; for EA.hy926 cell adhesion to coated product: before heat treatment
Method: Adhesion of EA.hy926 cells to microtiter plates coated with various peptides and proteins before and after accelerated aging. Accelerated aging was performed by peptide incubation in 0.1 M ammonium bicarbonate buffer, pH 8.5, for 16 h at 37° C. (“heat-treatment”). Adhesion to: recombinant FN-I4-5 or control protein (FN-I4-5 (SGS)) (A), synthetic FN-I5 (B), recombinant CNGRC-TNF, CNGRC-TNF1-11 and control CARAC-TNF1-11 peptide (C), CDGRC-TNF (D). Heat-treated (37° C.) and untreated (−20° C.) products were adsorbed onto the plastic surface of microtiter wells (overnight at 4° C.). Microphotograph of wells coated with 30 μg/ml of heat-treated FN-I5 or BSA (B, right) or with 10 μg/ml of recombinant CNGRC-TNF or CDGRC-TNF (C, right), ×200. Cell adhesion assay was carried out as described in Materials and Methods. The TNF fusion constructs, including the TNF1-11 fusion constructs, were made as described Materials and Methods, and include a “G” linker.
Untreated and “heat treated” fibronectin fragments, peptides and peptide-TNF conjugates were diluted at the desired concentration with 150 mM sodium chloride, 50 mM sodium phosphate, pH 7.3, and added to 96-well polyvinyl chloride microtiter plates (Falcon, Becton Dickinson). After overnight incubation at 4° C., the plates were washed, seeded with EA.hy926 cell in DMEM containing 0.1% BSA (40000 cells/well) and left to incubate for 2-3 h at 37° C., 5% CO2. Adherent cells were fixed and stained with crystal violet as described (Curnis et al., 2005).

L-M mouse fibroblasts = assay: standard cytolytic assay with L-M mouse fibroblasts; format: cell-based; details: in vitro, L-M murine fibroblasts
From the text: Protein purity and identity were checked by SDS-PAGE, electrospray mass spectrometry and gel-filtration chromatography.
The cDNA coding for DGR-TNF (mouse TNF fused with the C-terminus of CDGRCG (SEQ ID NO: 24)) was obtained by PCR on NGR-TNF plasmid, using the following primers: 5′ […] 3′ (SEQ ID NO: 43) (5′ primer); 5′ […] ′3 (SEQ ID NO: 44) (3′ primer). Both primers were designed to allow the directional cloning into a pET101/D-TOPO plasmid expression kit (Invitrogen). The underlined sequence in 5′ primer contains the sequence necessary to enable the directional cloning and the initial translation codon whereas the 3′ primer contains the stop codon (underlined). The PCR reaction and the cloning procedure were performed as recommended by the manufacturer's instruction. […] The column was washed extensively 100 mM Tris-HCl buffer containing pH 8.0, loaded with DGR-TNF crude extract, diluted in 20 mM Tris-HCl buffer conatining 2 mM EDTA pH 8.0, and desorbed by elution with 7 M urea, 100 mM Tris-HCl, pH 8.0. DGR-TNF was then refolded as described (1). Briefly, the denatured products were dialyzed against 2.33 M urea, 100 mM Tris-HCl, pH 8.0 at 4° C. (140 min), followed by 1.55 M urea, 100 mM Tris-HCl, pH 8.0 (140 min), and 1 M urea, 100 mM Tris-HCl, pH 8 (140 min). Finally the products were dialyzed against 100 mM Tris-HCl, pH 8.0 (48 h). The products were centrifuged at 13000×g (10 min, 4° C.) and concentrated by ultra-filtration through a 10 KDa cut-off filter. All solutions used in the purification and refolding steps were prepared with sterile and endotoxin-free water (S.A.L.F. Laboratorio Farmacologico SpA, Bergamo, Italy). Protein concentration was measured using the BCA Protein Assay Reagent (Pierce, Rockford, Ill.). Protein purity and identity were checked by SDS-PAGE, electrospray mass spectrometry (ESI-MS) and analytical gel-filtration chromatography.

T2 sequence (P06756 31-889 limits assumed): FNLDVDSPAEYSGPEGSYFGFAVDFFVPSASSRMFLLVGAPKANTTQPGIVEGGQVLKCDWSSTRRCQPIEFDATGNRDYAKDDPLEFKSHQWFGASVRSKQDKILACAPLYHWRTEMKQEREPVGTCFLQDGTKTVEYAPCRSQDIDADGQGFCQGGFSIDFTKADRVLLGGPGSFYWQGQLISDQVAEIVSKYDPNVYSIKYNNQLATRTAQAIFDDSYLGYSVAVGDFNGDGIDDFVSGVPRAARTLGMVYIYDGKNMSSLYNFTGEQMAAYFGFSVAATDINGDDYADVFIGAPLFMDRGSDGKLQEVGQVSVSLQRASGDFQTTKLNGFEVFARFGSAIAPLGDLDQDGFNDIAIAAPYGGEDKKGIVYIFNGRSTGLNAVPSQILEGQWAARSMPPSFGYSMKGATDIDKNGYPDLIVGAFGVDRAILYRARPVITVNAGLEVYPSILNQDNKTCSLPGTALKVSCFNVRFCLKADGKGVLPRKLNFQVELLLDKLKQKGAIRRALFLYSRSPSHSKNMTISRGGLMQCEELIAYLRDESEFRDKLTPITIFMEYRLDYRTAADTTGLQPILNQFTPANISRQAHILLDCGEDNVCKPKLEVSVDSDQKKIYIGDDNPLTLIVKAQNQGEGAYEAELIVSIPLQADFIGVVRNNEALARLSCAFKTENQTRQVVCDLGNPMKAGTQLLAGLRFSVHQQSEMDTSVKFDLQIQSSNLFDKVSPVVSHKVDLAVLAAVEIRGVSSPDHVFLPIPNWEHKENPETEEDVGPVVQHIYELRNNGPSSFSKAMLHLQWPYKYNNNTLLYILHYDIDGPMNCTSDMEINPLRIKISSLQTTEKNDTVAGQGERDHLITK
T2 sequence (P06756 891-1048 partner limits assumed): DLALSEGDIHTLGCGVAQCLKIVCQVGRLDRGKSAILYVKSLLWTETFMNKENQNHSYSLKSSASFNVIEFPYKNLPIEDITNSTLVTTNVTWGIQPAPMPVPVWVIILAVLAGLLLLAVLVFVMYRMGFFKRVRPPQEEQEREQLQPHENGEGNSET
T2 sequence (P05106 27-788): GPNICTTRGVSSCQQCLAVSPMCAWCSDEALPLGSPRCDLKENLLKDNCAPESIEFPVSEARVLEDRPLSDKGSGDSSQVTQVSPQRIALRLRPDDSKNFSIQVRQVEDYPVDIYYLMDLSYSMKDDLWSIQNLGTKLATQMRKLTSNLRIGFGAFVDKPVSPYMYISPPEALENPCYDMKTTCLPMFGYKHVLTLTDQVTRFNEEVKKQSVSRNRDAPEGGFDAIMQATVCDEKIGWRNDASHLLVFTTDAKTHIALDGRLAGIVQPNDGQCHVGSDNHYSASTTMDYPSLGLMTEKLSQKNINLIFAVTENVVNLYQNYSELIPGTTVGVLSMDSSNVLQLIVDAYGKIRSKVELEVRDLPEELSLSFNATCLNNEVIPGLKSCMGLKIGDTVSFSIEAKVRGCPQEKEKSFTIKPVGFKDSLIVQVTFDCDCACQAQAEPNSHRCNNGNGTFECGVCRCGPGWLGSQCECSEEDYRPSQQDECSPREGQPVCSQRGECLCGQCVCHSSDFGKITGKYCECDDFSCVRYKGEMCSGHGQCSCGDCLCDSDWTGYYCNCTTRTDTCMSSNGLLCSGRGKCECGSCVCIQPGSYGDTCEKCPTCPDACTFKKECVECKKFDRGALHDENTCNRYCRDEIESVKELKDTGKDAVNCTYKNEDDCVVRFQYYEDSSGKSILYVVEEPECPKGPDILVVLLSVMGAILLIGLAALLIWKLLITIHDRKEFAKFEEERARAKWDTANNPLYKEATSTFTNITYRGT
T1 sequence (P05106 27-788 limits assumed): as the sequence (P05106 27-788) above
T1 sequence (P06756 31-889 limits assumed): as the sequence (P06756 31-889 limits assumed) above
T1 sequence (P06756 891-1048 limits assumed): as the sequence (P06756 891-1048 partner limits assumed) above

Compound: CC(C)[C@H](NC(=O)CNC(=O)[C@@H]1CSSC[C@H](N)C(=O)N[C@H](CC(=O)O)C(=O)NCC(=O)N[C@@H](CCCNC(=N)N)C(=O)N1)C(=O)N[C@@H](CCCNC(=N)N)C(=O)N[C@@H](Cc1ccc(O)cc1)C(=O)O [DDGR-pep] (H-C[dD]GRCGVRY-OH; disulfide 1-5 (inferred); N-terminus and C-terminus assumed)
stability under integrin binding assay conditions [1]: stable

Compound: CC(C)[C@H](NC(=O)CNC(=O)[C@@H]1CSSC[C@H](N)C(=O)N[C@@H](CC(=O)O)C(=O)NCC(=O)N[C@@H](CCCNC(=N)N)C(=O)N1)C(=O)N[C@@H](CCCNC(=N)N)C(=O)N[C@@H](Cc1ccc(O)cc1)C(=O)O [DGR-pep] (H-CDGRCGVRY-OH; disulfide 1-5; N-terminus and C-terminus assumed)
IC50 (αvβ3): 60 µM

Compound: Loop-GNGRG: peptide corresponding to the NGR loop of FN-I5 (LQCISTGNGRGEWKCE)
competition of the binding of FN-I5 to αvβ3 (αvβ3 integrin): Binding competition was observed

Compound: FN-I4-5: recombinant human fibronectin 4-5th type I repeats, residue 184-273, His-tag at the N-terminus
competition of the binding of FN-I5 to αvβ3 (αvβ3 integrin): could compete | EA.hy926 cell adhesion to coated product after heat-treatment (EA.hy926 cells): increase of cell adhesion | EA.hy926 cell adhesion to coated product (EA.hy926 cells): promoted cell adhesion

Compound: Cys-Asp-Gly-Arg-Cys-Gly-(SEQ ID NO: 24)TNF [CDGRC-TNF]
Cytolytic Activity (L-M mouse fibroblasts): 2.59 (±0.69)×10^8 U/mg | Cytolytic Activity (L-M mouse fibroblasts; listed as DGR-TNF): 2.5×10^8 U/mg | EA.hy926 cell adhesion to coated product after heat-treatment (EA.hy926 cells): completely inactive | EA.hy926 cell adhesion to coated product (EA.hy926 cells): completely inactive

Continued, values first:

IC50 (αvβ3): > 1000 µM
Compound: CC(C)[C@H](NC(=O)CNC(=O)[C@@H]1CSSC[C@H](N)C(=O)N[C@@H](CO)C(=O)NCC(=O)N[C@@H](CCCNC(=N)N)C(=O)N1)C(=O)N[C@@H](CCCNC(=N)N)C(=O)N[C@@H](Cc1ccc(O)cc1)C(=O)O [SGR-pep] (H-CSGRCGVRY-OH; disulfide 1-5; N-terminus and C-terminus assumed)

stability when stored in water ([1]; 37° C., water): stable for more than one week | half-life ([1]; ammonium bicarbonate buffer and DMEM, 37° C., pH 8.5 ammonium bicarbonate and DMEM pH 7.3 (FIG. 5 legend), read-out: half-life of conversion to DGR-pep and isoDGR-pep): 2 to 4 h | half-life ([1]; ammonium bicarbonate buffer, pH 8.5 (0.1 M ammonium bicarbonate), 37° C., read-out: half-life (height of main chromatographic peak) (converted)): ~2 h | half-life ([1]; pH 7.3 (DMEM), 37° C., read-out: half-life (height of main chromatographic peak) (converted)): ~4 h | IC50 (αvβ3): 25 µM
Compound: CC(C)[C@H](NC(=O)CNC(=O)[C@@H]1CSSC[C@H](N)C(=O)N[C@@H](CC(N)=O)C(=O)NCC(=O)N[C@@H](CCCNC(=N)N)C(=O)N1)C(=O)N[C@@H](CCCNC(=N)N)C(=O)N[C@@H](Cc1ccc(O)cc1)C(=O)O [NGR-pep, CNGRCGVRY] (H-CNGRCGVRY-OH; disulfide 1-5; N-terminus and C-terminus assumed)

competition of the binding of FN-I5 to αvβ3 (αvβ3 integrin): not
Compound: Loop-RGGNG: control loop peptide of FN-I5 with scrambled sequence at the GNGRG site (LQCISTRGGNGEWKCE) [reference compound]

stability under integrin binding assay conditions [1]: stable
Compound: CC(C)[C@H](NC(=O)CNC(=O)[C@@H]1CSSC[C@H](N)C(=O)N[C@H](C(=O)O)CC(=O)NCC(=O)N[C@@H](CCCNC(=N)N)C(=O)N1)C(=O)N[C@@H](CCCNC(=N)N)C(=O)N[C@@H](Cc1ccc(O)cc1)C(=O)O [isoDGR-pep] (H-C[βAsp]GRCGVRY-OH; disulfide 1-5 (inferred); N-terminus and C-terminus assumed)

— US7795386B2, “Peptides comprising an isoDGR motif” (Molmed SpA, priority 2004, dated 2010)
